Columns and labels:
[1] = biological target: T1, Serine/threonine-protein kinase ULK2 (Homo sapiens) (UniProt Q8IYT8); assay: Inhibition of ULK2 at 1 uM
T1 sequence (whole entry): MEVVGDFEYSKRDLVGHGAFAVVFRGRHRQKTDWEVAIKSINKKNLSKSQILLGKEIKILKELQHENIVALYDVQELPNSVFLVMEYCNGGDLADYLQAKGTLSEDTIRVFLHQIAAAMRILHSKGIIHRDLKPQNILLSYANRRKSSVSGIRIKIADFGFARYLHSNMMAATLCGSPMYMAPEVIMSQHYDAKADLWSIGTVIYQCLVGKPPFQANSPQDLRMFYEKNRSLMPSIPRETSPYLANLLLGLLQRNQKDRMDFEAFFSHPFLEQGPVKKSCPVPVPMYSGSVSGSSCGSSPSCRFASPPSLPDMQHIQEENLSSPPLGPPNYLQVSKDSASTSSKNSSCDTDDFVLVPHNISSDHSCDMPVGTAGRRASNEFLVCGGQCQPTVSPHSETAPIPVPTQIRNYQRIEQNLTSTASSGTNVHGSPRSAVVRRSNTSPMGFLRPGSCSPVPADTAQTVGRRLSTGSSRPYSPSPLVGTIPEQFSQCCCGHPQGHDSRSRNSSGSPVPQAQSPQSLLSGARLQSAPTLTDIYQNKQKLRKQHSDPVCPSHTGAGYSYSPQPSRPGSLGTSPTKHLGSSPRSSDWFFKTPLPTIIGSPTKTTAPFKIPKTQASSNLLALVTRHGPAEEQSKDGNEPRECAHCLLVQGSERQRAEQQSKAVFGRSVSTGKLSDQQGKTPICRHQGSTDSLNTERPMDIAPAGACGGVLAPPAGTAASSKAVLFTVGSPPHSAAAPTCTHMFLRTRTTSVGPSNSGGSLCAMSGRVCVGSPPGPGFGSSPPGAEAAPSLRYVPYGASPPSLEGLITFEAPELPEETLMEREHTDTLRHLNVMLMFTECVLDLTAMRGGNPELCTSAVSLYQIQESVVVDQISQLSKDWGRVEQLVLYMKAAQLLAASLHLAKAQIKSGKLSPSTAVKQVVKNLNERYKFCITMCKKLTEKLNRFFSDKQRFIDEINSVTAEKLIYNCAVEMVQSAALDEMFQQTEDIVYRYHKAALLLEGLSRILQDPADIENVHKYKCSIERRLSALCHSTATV

[2] = biological target: T2, Mitogen-activated protein kinase kinase kinase 19 (Homo sapiens) (UniProt Q56UN5); assay: Inhibition of YSK4 at 1 uM
T2 sequence (whole entry): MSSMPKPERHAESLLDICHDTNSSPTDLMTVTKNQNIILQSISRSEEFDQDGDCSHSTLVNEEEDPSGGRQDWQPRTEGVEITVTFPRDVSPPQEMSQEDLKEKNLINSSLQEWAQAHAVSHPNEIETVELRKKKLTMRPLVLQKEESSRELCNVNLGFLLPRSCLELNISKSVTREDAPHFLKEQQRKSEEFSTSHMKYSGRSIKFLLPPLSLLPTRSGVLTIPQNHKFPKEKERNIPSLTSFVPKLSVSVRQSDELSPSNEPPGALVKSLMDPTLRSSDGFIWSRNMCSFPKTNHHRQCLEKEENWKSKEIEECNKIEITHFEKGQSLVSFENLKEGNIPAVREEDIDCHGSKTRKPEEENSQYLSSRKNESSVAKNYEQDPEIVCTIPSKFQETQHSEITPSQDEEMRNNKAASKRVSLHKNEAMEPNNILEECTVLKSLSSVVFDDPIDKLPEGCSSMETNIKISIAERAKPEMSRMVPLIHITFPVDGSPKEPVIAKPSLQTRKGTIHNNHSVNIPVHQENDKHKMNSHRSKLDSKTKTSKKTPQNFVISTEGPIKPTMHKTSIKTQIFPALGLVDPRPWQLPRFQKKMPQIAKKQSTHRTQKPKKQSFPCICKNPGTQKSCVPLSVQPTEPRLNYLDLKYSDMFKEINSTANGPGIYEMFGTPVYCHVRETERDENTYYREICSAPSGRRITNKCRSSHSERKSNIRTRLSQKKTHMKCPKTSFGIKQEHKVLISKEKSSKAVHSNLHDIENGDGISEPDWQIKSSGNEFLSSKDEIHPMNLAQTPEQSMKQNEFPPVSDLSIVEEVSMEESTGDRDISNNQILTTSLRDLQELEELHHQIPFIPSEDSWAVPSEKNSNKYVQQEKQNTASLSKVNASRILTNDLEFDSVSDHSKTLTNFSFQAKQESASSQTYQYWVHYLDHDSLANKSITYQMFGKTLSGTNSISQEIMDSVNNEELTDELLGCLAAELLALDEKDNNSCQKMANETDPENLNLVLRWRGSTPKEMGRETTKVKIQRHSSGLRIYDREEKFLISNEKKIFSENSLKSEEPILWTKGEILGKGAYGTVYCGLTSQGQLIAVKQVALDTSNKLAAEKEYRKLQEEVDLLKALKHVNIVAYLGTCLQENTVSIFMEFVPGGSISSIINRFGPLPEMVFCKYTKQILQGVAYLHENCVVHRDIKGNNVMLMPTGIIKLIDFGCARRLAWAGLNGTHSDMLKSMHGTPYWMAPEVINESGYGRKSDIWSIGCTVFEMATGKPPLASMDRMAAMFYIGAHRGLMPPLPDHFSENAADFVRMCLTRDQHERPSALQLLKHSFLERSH

| Compound | inhibition [1] [%] | inhibition [2] [%] |
| --- | --- | --- |
| CN1CCN(c2ccc(-c3cnc4c(c3)N(Cc3cc(F)ccc3F)CCN4)cn2)CC1 | < 50 | < 50 |
| CN1CCN(c2ccc(-c3cnc4c(c3)N(Cc3c(F)ccc(F)c3Cl)CCN4)cn2)CC1 | < 50 | < 50 |
| CC(=O)N1CCN(c2cc(-c3cnc4c(c3)N(Cc3cc(Cl)ccc3C(F)(F)F)CCN4)ccn2)CC1 | < 50 | < 50 |
| FC(F)(F)c1ccc(Cl)cc1CN1CCNc2ncc(-c3ccnc(N4CCNCC4)c3)cc21 | 78 | < 50 |
| CN1CCN(c2ccc(-c3cnc4c(c3)N(Cc3cc(Cl)ccc3C(F)(F)F)CCN4)cn2)CC1 | < 50 | < 50 |
| CN1CCN(c2ccc(-c3cnc4c(c3)N(Cc3cc(Cl)ccc3Cl)CCN4)cn2)CC1 | < 50 | < 50 |
